ChEMBL document CHEMBL1140419, “Synthesis of doxorubicin-peptide conjugate with multidrug resistant tumor cell killing activity” (Bioorg Med Chem Lett, 2005)

Tests used:
[1] = system: MCF7; assay: Tumor killing activity in MCF7 breast cancer cells by MTT assay; assay type: functional, cell-based; conditions: Homo sapiens
[2] = system: NCI/ADR-RES; assay: Percentage intracellular concentration in MCF7/ADR drug-resistant cell line; assay type: ADME, cell-based; conditions: human
[3] = system: AT3B-1; assay: Percentage intracellular concentration in AT3B1 drug-resistant cell line; assay type: ADME, cell-based, Homo sapiens
[4] = system: MCF7; assay: Cytotoxicity on drug-sensitive MCF7 cells; assay type: functional, cell-based; conditions: Homo sapiens
[5] = system: AT3B-1; assay: Inhibition of tumor killing activity in AT3B1 drug-resistant cell line with 10 uM verapamil (P-gp inhibitor); assay type: functional, cell-based; conditions: Rattus norvegicus
[6] = system: NCI/ADR-RES; assay: Tumor killing activity in MCF7/ADR drug-resistant cell line by MTT assay; assay type: functional, cell-based; conditions: Homo sapiens
[7] = system: NCI/ADR-RES; assay: Tumor killing activity in MCF7/ADR drug-resistant cell line with 10 uM verapamil (P-gp inhibitor); assay type: functional, cell-based; conditions: Homo sapiens
[8] = system: MCF7; assay: Percentage intracellular concentration in MCF7 breast cancer cells; assay type: ADME, cell-based; conditions: human
[9] = system: AT3B-1; assay: Tumor killing activity in AT3B1 drug-resistant cell line by MTT assay; assay type: functional, cell-based; conditions: Rattus norvegicus

permeability [2] | permeability [3] | permeability [8] | Compound | IC50 [1] | Activity [4] | IC50 [5] | IC50 [6] | IC50 [7] | IC50 [9]
58.4% | 49.3% | 84.6% | COc1cccc2c1C(=O)c1c(O)c3c(c(O)c1C2=O)C[C@@](O)(C(=O)CO)C[C@@H]3O[C@H]1C[C@H](NC(=O)C2CCC(CN3C(=O)CC(SC[C@H](N)C(=O)NCC(=O)NCC(=O)NCC(=O)N[C@@H](Cc4ccc(O)cc4)C(=O)NCC(=O)N[C@@H](CCCN=C(N)N)C(=O)N[C@@H](CCCCN)C(=O)N[C@@H](CCCCN)C(=O)N[C@@H](CCCN=C(N)N)C(=O)N[C@@H](CCCN=C(N)N)C(=O)N[C@@H](CCC(N)=O)C(=O)N[C@@H](CCCN=C(N)N)C(=O)N[C@@H](CCCN=C(N)N)C(=O)N[C@@H](CCCN=C(N)N)C(=O)O)C3=O)CC2)[C@H](O)[C@H](C)O1 (some centres not stated) | 0.28 µM | Dose-dependent effect | 23.8 µM | 5.8 µM | 5.2 µM | 23.4 µM
4.5% | 7.9% | 92.3% | COc1cccc2c1C(=O)c1c(O)c3c(c(O)c1C2=O)C[C@@](O)(C(=O)CO)C[C@@H]3O[C@H]1C[C@H](N)[C@H](O)[C@H](C)O1 [DOXORUBICIN] |  | Dose-dependent effect | 42.4 µM | 45.2 µM | 6.7 µM | 168 µM
